The data set can be described thus: Clearance and half life: pharmacokinetics after IV or PO dosing, plasma measured by LC/MS/MS. Format: in vivo. As to conditions: rat; for clearance: clearance from plasma levels (LC/MS/MS, WinNonlin), PEG 400 formulation, route for the table values not stated; for half-life: half life from plasma levels (LC/MS/MS, WinNonlin), route not stated. As to the method:
Jugular Vein Cannulation—Animals are anesthetized via IP injection using Ketamine/Xylazine/saline solution (@ 0.25 mL/kg). Animals are weighed prior to dosing of anesthetic to determine proper dosage. Sterile instruments and aseptic technique are used throughout surgery. This includes wearing a mask, clean lab coat or scrubs and sterile gloves. The ventral and dorsal neck areas are shaved and prepped with betadine and alcohol. A small skin incision is made over the jugular vein. Using blunt dissection techniques, free the intended vessel from surrounding tissue and thread two sutures under the vein. Tie the cranial suture, nick the vessel, insert the catheter, and use the distal suture to secure the catheter. Dissect a subcutaneous passage between the catheter insertion point and the intrascapular space; make a small exit hole at the nape of the neck. Then, using hemastats, pull the cannula through the passage to the dorsal neck area. Confirm that the catheter is still properly placed, flush with appropriate heparin/saline solution, and knot the distal end of the cannula. Place a suture tie around the knot, coil the cannula under the skin and close the dorsal incision, leaving the “tie” slightly exposed for ease of externalizing the catheter. Close the ventral incision. The animal should be recovered on a circulating heating blanket or equivalent and returned to its room when it's able to right itself.
Compounds are formulated with polyethylene glycol 400 (PEG) at 30% (IV) or 60% (PO).
Intravenous (IV) dosing is accomplished with a bolus injection into a lateral tail vein. Animals are restrained using a rat restrainer to minimize mis-dosings and to reduce animal stress. Individual doses are calculated based on body weights taken the morning of the dose. Oral (PO) dosing is accomplished by oral gavage using a 3½ inch stainless steel animal feeding tube. Animals are restrained by grasping gently with our hands to reduce animal stress. Individual doses are calculated based on body weights taken the morning of the dose.
Blood (approximately 0.2 mL) is collected from an jugular cannula. For occasions when the jugular cannula fails, blood is removed from the remaining lateral tail vein. The whole blood was placed into Microtainer® tubes containing K2EDTA anticoagulant. Samples are inverted several times to ensure proper mixing with anticoagulant and are stored on ice until centrifugation. Samples are centrifuged at 10,000×g for 5 minutes and plasma is transferred to 1.5 mL microcentrifuge tube. […]
All plasma samples are measured by LC/MS/MS. All pharmacokinetic parameters, clearance (CL), half life (t½), area under curve (AUC) and maximum conc (Cmax) are determined using WinNonin (version 3.2).

Usually half-life stands for the time in which the quantity being followed falls by half. Low values mean rapid decline, high ones slow decline. `O=C(N[C@@H](Cc1ccc(OC(=S)N2CCOCC2)cc1)C(=O)O)c1ccccc1Cl` [compound 1] had a clearance of 23 mL/min/kg and a half-life of 61 min.
The compound `O=C(N[C@@H](Cc1ccc(OC(=O)N2CCOCC2)cc1)C(=O)O)c1ccccc1Cl` [referencecarbamate] returned a clearance of 50 mL/min/kg and a half-life of 6 min.

For the origin of these results see patent publication US7015323B2, “Thiocarbamate inhibitors of alpha-4 integrins” (Genentech, Inc., priority 2003, dated 2006).
